# What was measured:
# [1] = biological target: T1, human glycogen phosphorylase a (Homo sapiens, UniProt P06737); test: Glycogen phosphorylase a activity test (reverse direction, release of inorganic phosphate); assay type: biochemical; settings: 10 μM test substance, duplicate determinations, 40 min at room temperature
# T1 sequence (P06737 2-847 limits assumed): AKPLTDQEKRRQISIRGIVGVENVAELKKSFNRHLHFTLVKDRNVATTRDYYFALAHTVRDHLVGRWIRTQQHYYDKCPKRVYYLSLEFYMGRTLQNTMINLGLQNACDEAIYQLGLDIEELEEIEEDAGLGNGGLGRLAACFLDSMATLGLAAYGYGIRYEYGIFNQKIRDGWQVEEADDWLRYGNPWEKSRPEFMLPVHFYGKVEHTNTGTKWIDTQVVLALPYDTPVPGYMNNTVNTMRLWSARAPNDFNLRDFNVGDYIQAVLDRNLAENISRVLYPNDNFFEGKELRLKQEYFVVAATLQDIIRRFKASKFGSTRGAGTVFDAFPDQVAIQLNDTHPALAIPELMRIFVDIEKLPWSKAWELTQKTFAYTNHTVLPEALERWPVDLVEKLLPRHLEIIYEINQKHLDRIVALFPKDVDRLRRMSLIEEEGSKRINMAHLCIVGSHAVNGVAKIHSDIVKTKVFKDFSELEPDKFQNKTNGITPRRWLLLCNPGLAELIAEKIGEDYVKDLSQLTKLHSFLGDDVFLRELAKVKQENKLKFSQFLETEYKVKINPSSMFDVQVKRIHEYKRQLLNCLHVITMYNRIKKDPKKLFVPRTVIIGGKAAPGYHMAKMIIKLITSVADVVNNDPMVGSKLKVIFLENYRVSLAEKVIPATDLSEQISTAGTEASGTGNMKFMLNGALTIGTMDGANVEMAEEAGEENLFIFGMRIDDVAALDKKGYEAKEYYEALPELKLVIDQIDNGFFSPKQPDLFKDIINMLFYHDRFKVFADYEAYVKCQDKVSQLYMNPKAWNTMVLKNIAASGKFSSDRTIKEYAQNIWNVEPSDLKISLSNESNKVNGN
# Method: Glycogen Phophorylase a Activity Test
# All reactions were carried out as duplicate determinations in 96-well microtiter plates (half area plates, Costar No. 3696), and the change in absorption as a consequence of the formation of the reaction product was measured at the wavelength specified below in a Multiskan Ascent Elisa Reader (Lab Systems, Finland).
# In order to measure the GPa enzyme activity in the reverse direction, the conversion of glucose 1-phosphate to glycogen and inorganic phosphate was measured by the general method of Engers et al. (Engers H D, Shechosky S, Madsen N B, Can J Biochem 1970 July;48(7):746–754) with the following modifications: human glycogen phosphorylase a (for example containing 0.76 mg of protein/ml (Aventis Pharma Deutschland GmbH), dissolved in buffer solution E (25 mM β-glycerophosphate, pH 7.0, 1 mM EDTA and 1 mM dithiothreitol) was diluted to a concentration of 10 μg of protein/ml with buffer T (50 mM Hepes, pH 7.0, 100 mM KCl, 2.5 mM EDTA, 2.5 mM MgCl26H2O) and addition of 5 mg/ml of glycogen. Test substances were prepared as a 10 mM solution in DMSO and diluted to 50 μM with buffer solution T. To 10 μl of this solution were added 10 μl of 37.5 mM glucose dissolved in buffer solution T and 5 mg/ml of glycogen, and also 10 μl of a solution of human glycogen phosphorylase a (10 μg of protein/ml) and 20 μl of 2.5 mM glucose 1-phosphate. The base value of the activity of glycogen phosphorylase a in the absence of test substance was determined by adding 10 μl of buffer solution T (0.1% DMSO). The mixture was incubated at room temperature for 40 minutes and the released inorganic phosphate was determined by means of the general method of Drueckes et al. (al (Drueckes P, Schinzel R, Palm D, Anal Biochem 1995 Sep. 1;230(1):173–177) with the following modifications: 50 μl of a stop solution of 7.3 mM of ammonium molybdate, 10.9 mM of zinc acetate, 3.6% of ascorbic acid, 0.9% of SDS are added to 50 μl of the enzyme mixture. After 60 minutes of incubation at 45° C., the absorption was measured at 820 nm. To determine the background absorption, the stop solution was added immediately after the addition of the glucose 1-phosphate solution in a separate reaction. This test was carried out at a concentration of 10 μM of the test substance, in order to determine the respective inhibition of glycogen phosphorylase a by the test substance in vitro.
# [2] = biological target: T1, human glycogen phosphorylase a; test: as above; assay type: biochemical; settings: 10 μM test substance; duplicate determinations; 40 min at room temperature
melting point,% inhibition at 10 μM [1],IC50 at 10 μM [2],% inhibition at 10 μM ([1]; 10 µM),SMILES
> 350 °C,98%,–,–,"O=C(NC(=O)c1cc(F)c(F)cc1Cl)Nc1ccc(-c2n[nH]c(O)n2)cc1OC(F)(F)F [Example 6f, 1-(2-chloro-4,5-difluorobenzoyl)-3-[2-trifluoromethoxy-4-(5-hydroxy-1H-[1,2,4]triazol-3-yl)phenyl]urea]"
229.7 °C,100%,–,–,"O=C(NC(=O)c1ccc(F)cc1Cl)Nc1ccccc1-c1nnc(O)o1 [Example 8d, 1-(2-chloro-4-fluorobenzoyl)-3-[2-(5-hydroxy-[1,3,4]oxadiazol-2-yl)phenyl]urea]"
293.1 °C,97%,–,–,"COc1cc(-c2nnc(O)o2)ccc1NC(=O)NC(=O)c1cc(F)c(F)cc1Cl [Example 8e, 1-(2-chloro-4,5-difluorobenzoyl)-3-[4-(5-hydroxy-[1,3,4]oxadiazol-2-yl)-2-methoxyphenyl]urea]"
222.9 °C,99%,–,–,"O=C(NC(=O)c1cc(F)c(F)cc1Cl)Nc1ccccc1-c1nnc(O)o1 [Example 8f, 1-(2-chloro-4,5-difluorobenzoyl)-3-[2-(5-hydroxy-[1,3,4]oxadiazol-2-yl)phenyl]urea]"
204 °C,98%,–,–,"O=C(NC(=O)c1ccc(F)cc1Cl)Nc1ccccc1-c1nnco1 [Example 8g, 1-(2-chloro-4-fluorobenzoyl)-3-(2-[1,3,4]oxadiazol-2-ylphenyl)urea]"
199.6 °C,100%,–,–,"O=C(NC(=O)c1cc(F)c(F)cc1Cl)Nc1ccccc1-c1nnco1 [Example 8h, 1-(2-chloro-4,5-difluorobenzoyl)-3-(2-[1,3,4]oxadiazol-2-ylphenyl)urea]"
198 °C,54%,–,–,"CNc1nn(-c2ccc(NC(=O)NC(=O)c3ccc(F)cc3Cl)c(C)c2)c(=O)o1 [Example 9f, 1-(2-chloro-4-fluorobenzoyl)-3-(2-methyl-4-(5-methylamino-2-oxo-3H-[1,3,4]-oxadiazol-3-yl)phenyl)urea]"
230.1 °C,98%,–,–,"O=C(NC(=O)c1ccc(F)cc1Cl)Nc1ccc(-c2noc(=O)[nH]2)cc1OC(F)(F)F [Example 11e, 1-(2-chloro-4-fluorobenzoyl)-3-[4-(5-oxo-4,5-dihydro-[1,2,4]oxadiazol-3-yl)-2-trifluoromethoxyphenyl]urea]"
243.6 °C,98%,–,–,"O=C(NC(=O)c1ccc(F)cc1Cl)Nc1ccc(-c2noc(=O)[nH]2)cc1Cl [Example 11f, 1-(2-chloro-4-fluorobenzoyl)-3-[2-chloro-4-(5-oxo-4,5-dihydro-[1,2,4]oxadiazol-3-yl)phenyl]urea]"
239.3 °C,100%,–,–,"O=C(NC(=O)c1cc(F)c(F)cc1Cl)Nc1ccccc1-c1ccc(C(=O)O)o1 [Example 13b, 5-{2-[3-(2-chloro-4,5-difluorobenzoyl)ureido]phenyl}furan-2-carboxylic acid]"
236.3 °C,100%,–,–,"O=C(NC(=O)c1ccc(F)cc1Cl)Nc1ccccc1-c1ccc(C(=O)O)o1 [Example 13c, 5-{2-[3-(2-chloro-4-fluorobenzoyl)ureido]phenyl}furan-2-carboxylic acid]"
216 °C,0.3%,–,–,"NC(=O)C1CCCN(c2ccc(F)cc2NC(=O)NC(=O)c2cc(F)c(F)cc2Cl)C1 (stereo not drawn) [Example 15c, 1-{2-[3-(2-chloro-4,5-difluorobenzoyl)ureido]-4-fluorophenyl}piperidine-3-carboxamide]"
–,–,0.01 µM,–,O=C(NC(=O)c1cc(F)c(F)cc1Cl)Nc1cc(F)ccc1N1CCCC(C(=O)O)C1 (stereo not drawn) [Example 17]
–,–,0.01 µM,–,COC(=O)C1CCN(c2ccc(Cl)cc2NC(=O)NC(=O)c2cc(F)c(F)cc2Cl)CC1 [Example 29]
–,–,0.01 µM,–,O=C(NC(=O)c1cc(F)c(F)cc1Cl)Nc1cc(Cl)ccc1N1CCCC(C(=O)O)C1 (stereo not drawn) [Example 31]
–,3.9%,–,–,CCN(CC)C(=O)C1CCCN(c2ccc(F)cc2NC(=O)NC(=O)c2cc(F)c(F)cc2Cl)C1 (stereo not drawn) [Example 37]
–,4.6%,–,–,CCN(CC)C(=O)C1CCCN(c2ccc(F)cc2NC(=O)NC(=O)c2ccc(F)cc2Cl)C1 (stereo not drawn) [Example 38]
–,–,0.01 µM,–,COC(=O)C1CCN(c2ccc(F)cc2NC(=O)NC(=O)c2cc(F)c(F)cc2Cl)CC1 [Example 39]
–,4.6%,–,–,COC(=O)C1CCN(c2ccc(F)cc2NC(=O)NC(=O)c2ccc(F)cc2Cl)CC1 [Example 40]
–,–,–,0.15%,O=C(NC(=O)c1ccc(F)cc1Cl)Nc1cc(C(F)(F)F)ccc1N1CCC(C(=O)O)CC1 [Example 43]
–,0.05%,–,–,COC(=O)C1CCN(c2ccc(S(C)(=O)=O)cc2NC(=O)NC(=O)c2cc(F)c(F)cc2Cl)CC1 [Example 44]
–,0.8%,–,–,COC(=O)C1CCN(c2ccc(S(C)(=O)=O)cc2NC(=O)NC(=O)c2ccc(F)cc2Cl)CC1 [Example 45]

SMILES,melting point,% inhibition at 10 μM [1],IC50 at 10 μM [2],% inhibition at 10 μM ([1]; 10 µM)
O=C(NC(=O)c1cc(F)c(F)cc1Cl)Nc1cc(F)ccc1N1CCC(C(=O)[O-])CC1.[Na+],160.9 °C,–,–,–
"O=C(NC(=O)c1cc(F)c(F)cc1Cl)Nc1cc(F)ccc1N1CCC(C(=O)O)CC1 [Example 16c, 1-{2-[3-(2-chloro-4,5-difluorobenzoyl)ureido]-4-fluorophenyl}piperidine-4-carboxylic acid]",221.7 °C,–,–,–
